Measured values published in PubChem BioAssay AID1259407 (Chemical Carcinogenesis Research Information System (CCRIS), 2018).
Activity calls are given as the source filed them. The rule behind the calls is not given here.

Test system: CCRIS mutagenicity, Ames/micronucleus/aberration tests
Assay: CCRIS mutagenicity studies

**Q.** What does the source list for `CN(C)N=O`?
**A.** mutagenic call (End Point: IN VITRO CHROMOSOMAL ABERRATIONS, Test System: CHL/IU CELLS, Metabolic Activation: RAT, LIVER, S-9, PHENOBARBITAL AND 5,6-BENZOFLAVONE): active; positive (structural changes); mutagenic call (End Point: IN VITRO CHROMOSOMAL ABERRATIONS, Test System: CHO CELLS, Metabolic Activation: NONE): inactive; negative; mutagenic call (End Point: IN VITRO MICRONUCLEUS, Test System: CHL/IU CELLS, Metabolic Activation: RAT, LIVER, S-9, PHENOBARBITAL AND 5,6-BENZOFLAVONE): active; positive; mutagenic call (End Point: IN VIVO MICRONUCLEUS, Test System: HEPATOCYTES, Species: RAT, Strain/Sex: FISHER 344 OR SD/MALE, Route: ORAL OR IP): active; positive; mutagenic call (End Point: IN VIVO MICRONUCLEUS, Test System: PERIPHERAL BLOOD RETICULOCYTES, Species: RAT, Strain/Sex: FISHER 344 OR SD/MALE, Route: ORAL OR IP): inactive; negative; mutagenic call (End Point: In vivo micronucleus, Test System: Liver, Species: Mouse, Strain/Sex: Big Blue/Male, Route: Oral): active; positive for laci mutation frequency in liver; high percentage of g:c to t:a t; mutagenic call (End Point: In vivo micronucleus, Test System: Micronucleated hepatocytes, Species: Rat, Strain/Sex: F344/Male, Route: Oral): active; positive (p<0.01); mutagenic call (Test System: AMES SALMONELLA TYPHIMURIUM, Strain/Indicator: NM2000, Metabolic Activation: RAT, LIVER, S-9, ISONIAZID, Method: PREINCUBATION): active; positive; mutagenic call (Test System: AMES SALMONELLA TYPHIMURIUM, Strain/Indicator: NM2009, Metabolic Activation: RAT, LIVER, S-9, ISONIAZID, Method: PREINCUBATION): active; positive; mutagenic call (Test System: AMES SALMONELLA TYPHIMURIUM, Strain/Indicator: TA92, Metabolic Activation: MOUSE, LIVER, S-10, Method: PREINCUBATION): active; positive; mutagenic call (Test System: AMES SALMONELLA TYPHIMURIUM, Strain/Indicator: TA97, Metabolic Activation: NONE, Method: STANDARD PLATE): inactive; negative; mutagenic call (Test System: AMES SALMONELLA TYPHIMURIUM, Strain/Indicator: TA97, Metabolic Activation: RAT, LIVER, S-9, AROCLOR 1254, Method: STANDARD PLATE): inactive; negative; mutagenic call (Test System: AMES SALMONELLA TYPHIMURIUM, Strain/Indicator: TA98, Metabolic Activation: NONE, Method: STANDARD PLATE): inactive; negative; mutagenic call (Test System: AMES SALMONELLA TYPHIMURIUM, Strain/Indicator: TA98, Metabolic Activation: RAT, LIVER, S-9, AROCLOR 1254, Method: STANDARD PLATE): inactive; negative; mutagenic call (Test System: AMES SALMONELLA TYPHIMURIUM, Strain/Indicator: TA100, Metabolic Activation: HAMSTER, LIVER, S-9, AROCLOR 1254, NADPH GENERATING SYSTEM, CYTOSOL, Method: PREINCUBATION): active; positive; mutagenic call (Test System: AMES SALMONELLA TYPHIMURIUM, Strain/Indicator: TA100, Metabolic Activation: HAMSTER, LIVER, S-9, Method: PREINCUBATION): active; positive; mutagenic call (Test System: AMES SALMONELLA TYPHIMURIUM, Strain/Indicator: TA100, Metabolic Activation: HUMAN, LIVER, S-9, Method: PREINCUBATION): inactive; negative; mutagenic call (Test System: AMES SALMONELLA TYPHIMURIUM, Strain/Indicator: TA100, Metabolic Activation: MICROSOMES, CYTOSOL, Method: PREINCUBATION): active; positive; mutagenic call (Test System: AMES SALMONELLA TYPHIMURIUM, Strain/Indicator: TA100, Metabolic Activation: MOUSE, INTACT UROTHELIAL CELLS, Method: FLUCTUATION TEST): active; positive; mutagenic call (Test System: AMES SALMONELLA TYPHIMURIUM, Strain/Indicator: TA100, Metabolic Activation: MOUSE, LIVER, S-9, PHENOBARBITAL AND BETA-NAPHTHOFLAVONE, Method: PREINCUBATION): active; positive; mutagenic call (Test System: AMES SALMONELLA TYPHIMURIUM, Strain/Indicator: TA100, Metabolic Activation: MOUSE, LIVER, S-9, PHENOBARBITAL, BETA-NAPHTHOFLAVONE, ISOSAFROLE, ETHANOL, PREGNENOLONE AND 16ALPHA-CARBONITRILE, Method: PREINCUBATION): active; positive; mutagenic call (Test System: AMES SALMONELLA TYPHIMURIUM, Strain/Indicator: TA100, Metabolic Activation: NONE, Method: PREINCUBATION): inactive; negative; mutagenic call (Test System: AMES SALMONELLA TYPHIMURIUM, Strain/Indicator: TA100, Metabolic Activation: NONE, Method: STANDARD PLATE): inactive; negative; mutagenic call (Test System: AMES SALMONELLA TYPHIMURIUM, Strain/Indicator: TA100, Metabolic Activation: PIG, LIVER, S-9, Method: PREINCUBATION): inactive; negative; mutagenic call (Test System: AMES SALMONELLA TYPHIMURIUM, Strain/Indicator: TA100, Metabolic Activation: RABBIT, LIVER, S-9, Method: STANDARD PLATE): inactive; negative; mutagenic call (Test System: AMES SALMONELLA TYPHIMURIUM, Strain/Indicator: TA100, Metabolic Activation: RABBIT, LUNG, S-9, Method: STANDARD PLATE): inactive; negative; mutagenic call (Test System: AMES SALMONELLA TYPHIMURIUM, Strain/Indicator: TA100, Metabolic Activation: RABBIT, NASAL, S-9, Method: STANDARD PLATE): inactive; negative; mutagenic call (Test System: AMES SALMONELLA TYPHIMURIUM, Strain/Indicator: TA100, Metabolic Activation: RAT, INTACT UROTHELIAL CELLS, Method: FLUCTUATION TEST): active; positive; mutagenic call (Test System: AMES SALMONELLA TYPHIMURIUM, Strain/Indicator: TA100, Metabolic Activation: RAT, LIVER, S-9, AROCLOR 1254, (PREGNANT MARE SERUM), Method: PREINCUBATION): active; positive; mutagenic call (Test System: AMES SALMONELLA TYPHIMURIUM, Strain/Indicator: TA100, Metabolic Activation: RAT, LIVER, S-9, AROCLOR 1254, Method: PREINCUBATION): active; positive; mutagenic call (Test System: AMES SALMONELLA TYPHIMURIUM, Strain/Indicator: TA100, Metabolic Activation: RAT, LIVER, S-9, AROCLOR 1254, Method: STANDARD PLATE): inactive; negative; mutagenic call (Test System: AMES SALMONELLA TYPHIMURIUM, Strain/Indicator: TA100, Metabolic Activation: RAT, LIVER, S-9, CYCLOHEXANOL, Method: PREINCUBATION): active; positive; mutagenic call (Test System: AMES SALMONELLA TYPHIMURIUM, Strain/Indicator: TA100, Metabolic Activation: RAT, LIVER, S-9, ETHANOL, Method: PREINCUBATION): active; positive; mutagenic call (Test System: AMES SALMONELLA TYPHIMURIUM, Strain/Indicator: TA100, Metabolic Activation: RAT, LIVER, S-9, KC500 OR PHENOBARBITAL, Method: LIQUID SUSPENSION): active; positive; mutagenic call (Test System: AMES SALMONELLA TYPHIMURIUM, Strain/Indicator: TA100, Metabolic Activation: RAT, LIVER, S-9, N-BENZYLIMIDAZOLE, Method: PREINCUBATION): active; positive; mutagenic call (Test System: AMES SALMONELLA TYPHIMURIUM, Strain/Indicator: TA100, Metabolic Activation: RAT, LIVER, S-9, PHENOBARBITAL, Method: PREINCUBATION): active; positive; mutagenic call (Test System: AMES SALMONELLA TYPHIMURIUM, Strain/Indicator: TA100, Metabolic Activation: RAT, LUNG, S-9, Method: STANDARD PLATE): inactive; negative; mutagenic call (Test System: AMES SALMONELLA TYPHIMURIUM, Strain/Indicator: TA100, Metabolic Activation: RAT, NASAL, S-9, Method: STANDARD PLATE): inactive; negative; mutagenic call (Test System: AMES SALMONELLA TYPHIMURIUM, Strain/Indicator: TA100, Metabolic Activation: S-9, Method: PREINCUBATION): inactive; negative; mutagenic call (Test System: AMES SALMONELLA TYPHIMURIUM, Strain/Indicator: TA100, Metabolic Activation: TOBACCO CELLS, Method: PREINCUBATION): inactive; negative; mutagenic call (Test System: AMES SALMONELLA TYPHIMURIUM, Strain/Indicator: TA104, Metabolic Activation: HAMSTER, LIVER, S-9, AROCLOR 1254, NADPH GENERATING SYSTEM, CYTOSOL, Method: PREINCUBATION): active; positive; mutagenic call (Test System: AMES SALMONELLA TYPHIMURIUM, Strain/Indicator: TA104, Metabolic Activation: HAMSTER, LIVER, S-9, AROCLOR 1254, Method: PREINCUBATION): active; positive; mutagenic call (Test System: AMES SALMONELLA TYPHIMURIUM, Strain/Indicator: TA104, Metabolic Activation: HAMSTER, LIVER, S-9, Method: PREINCUBATION): active; positive; mutagenic call (Test System: AMES SALMONELLA TYPHIMURIUM, Strain/Indicator: TA104, Metabolic Activation: MICROSOMES, CYTOSOL, Method: PREINCUBATION): active; positive; mutagenic call (Test System: AMES SALMONELLA TYPHIMURIUM, Strain/Indicator: TA104, Metabolic Activation: RAT, LIVER, S-9, AROCLOR 1254, Method: PREINCUBATION): active; positive; mutagenic call (Test System: AMES SALMONELLA TYPHIMURIUM, Strain/Indicator: TA104, Metabolic Activation: RAT, LIVER, S-9, Method: PREINCUBATION): active; positive; mutagenic call (Test System: AMES SALMONELLA TYPHIMURIUM, Strain/Indicator: TA1530, Metabolic Activation: RAT, LIVER, S-9, AROCLOR 1254, Method: PREINCUBATION): active; positive; mutagenic call (Test System: AMES SALMONELLA TYPHIMURIUM, Strain/Indicator: TA1530, Metabolic Activation: RAT, LIVER, S-9, Method: STANDARD PLATE): active; positive; mutagenic call (Test System: AMES SALMONELLA TYPHIMURIUM, Strain/Indicator: TA1535 (PSK1002), Metabolic Activation: RAT, LIVER, S-9, ISONIAZID, Method: PREINCUBATION): active; positive; mutagenic call (Test System: AMES SALMONELLA TYPHIMURIUM, Strain/Indicator: TA1535, Metabolic Activation: NONE, Method: PREINCUBATION): inactive; negative; mutagenic call (Test System: AMES SALMONELLA TYPHIMURIUM, Strain/Indicator: TA1535, Metabolic Activation: RAT LIVER S-9, ETHANOL (4%), Method: PREINCUBATION): inactive; negative; mutagenic call (Test System: AMES SALMONELLA TYPHIMURIUM, Strain/Indicator: TA1535, Metabolic Activation: RAT, LIVER, HEPATOCYTES, Method: PREINCUBATION): active; positive; mutagenic call (Test System: AMES SALMONELLA TYPHIMURIUM, Strain/Indicator: TA1535, Metabolic Activation: RAT, LIVER, MICROSOMES, KANECHLOR 500, Method: PREINCUBATION): active; positive; mutagenic call (Test System: AMES SALMONELLA TYPHIMURIUM, Strain/Indicator: TA1535, Metabolic Activation: RAT, LIVER, S-9, AROCLOR 1254, (PREGNANT MARE SERUM), Method: PREINCUBATION): active; positive; mutagenic call (Test System: AMES SALMONELLA TYPHIMURIUM, Strain/Indicator: TA1535, Metabolic Activation: RAT, LIVER, S-9, AROCLOR 1254, Method: PREINCUBATION): active; positive; mutagenic call (Test System: AMES SALMONELLA TYPHIMURIUM, Strain/Indicator: TA1535, Metabolic Activation: RAT, LIVER, S-9, AROCLOR, Method: PREINCUBATION): active; positive; mutagenic call (Test System: AMES SALMONELLA TYPHIMURIUM, Strain/Indicator: TA1535, Metabolic Activation: RAT, LIVER, S-9, KC500 OR PHENOBARBITAL, Method: LIQUID SUSPENSION): active; positive; mutagenic call (Test System: AMES SALMONELLA TYPHIMURIUM, Strain/Indicator: TA1535, Metabolic Activation: RAT, LIVER, S-9, SODIUM PHENOBARBITONE, Method: PREINCUBATION): active; positive; mutagenic call (Test System: AMES SALMONELLA TYPHIMURIUM, Strain/Indicator: TA1535, Metabolic Activation: RAT, LIVER, S-9, Method: PREINCUBATION): inactive; negative; mutagenic call (Test System: AMES SALMONELLA TYPHIMURIUM, Strain/Indicator: TA1535, Metabolic Activation: S-9, Method: PREINCUBATION): active; positive
